Key:
[1] = target: T1, opossum kidney PTH/PTHrp receptor clone, OK-O (Didelphis virginiana, UniProt P25107, I132F/S86P); experiment: Inositol phosphate metabolism, COS cells expressing OK-O; assay type: cell-based; details: FIG. 15, listed as NlePTH
T1 construct: expressed in transfected cells; host or cells: COS cells, transient, plasmid OK-O (pcDNA I)

[2] = target: T2, opossum kidney PTH/PTHrP receptor clone, OK-H (Didelphis virginiana, UniProt P25107, I132F/S86P); experiment: Radioreceptor assay, COS cells expressing OK-H; assay type: binding; details: FIG. 9
T2 construct: expressed in transfected cells; host or cells: COS cells, transient, plasmid OK-H (pcDNA I)
Description: (§1) In brief, the labeled peptide was dissolved in 0.1% trifluoracetic acid (TFA), applied to a C18 Sep-pak cartridge (Waters Associates, Inc., Milford, Mass.) and eluted with a solution of 60% acetonitrile in 0.1% TFA. After lyophilization, the radioligand then was applied to C18-μBondapak column (3.9 mm×30 cm. Waters Associates) and eluted over 30 min with a linear gradient of 30-50% acetonitrile-0.1% TFA at a flow rate of 2 ml/min.
(§2) COS-7 cells were grown in 15 cm plates in DMEM, 10% heat-inactivated […], 10 mg/L gentamycin until 80-90% confluent. Twenty-four hours after transfection by the DEAE/Dextran method (Sambrook et al., supra), with 1-2 μg of plasmid DNA, the cells were trypsinized and replated in multiwell plastic dishes (16 or 35 mm diameter, Costar, Cambridge, Mass.) at a cell concentration of 5×10^4 cells/cm^2). […] After continuing culture for another 48 h, radiorecepter assays were performed. The culture medium was replaced with buffer containing 50 mM Tris-HCL (pH 7.7), 100 mM NaCl, 2 mM CaCl2, 5 mM KCL, 0.5% heat-inactivated fetal bovine serum (GIBCO), and 5% heat-inactivated horse serum (KC Biological Inc., Lenexa, Kans.) immediately before studies were initiated.
(§3) Incubations were terminated by aspirating the buffer, and repeatedly (×3) washing the culture dishes, containing the adherent cells with chilled 0.9% NaCl solution, over a 15 sec period. Cell-bound radioactivity was recovered by the sequential addition (×3) of 1 N NaOH (200 μl) to each well. After 30 min at room temperature, the NaOH was transferred to a glass tube. A second and third extraction with 1 N NaOH (200 μl) were combined with the first, and the total radioactivity was counted in a γ-spectrometer (Packard Instruments, Downers Grove, Ill.).

[3] = target: T3, human kidney PTH/PTHrP receptor (Homo sapiens, UniProt Q03431, L389Q); experiment: Radioreceptor assay, COS-7 cells transiently expressing human kidney PTH/PTHrP receptor (HKrk); assay type: binding
T3 construct: The full-length human kidney PTH/PTHrP receptor cDNA, HKrk, was constructed using the BamHI/PvuII fragment of PCR clone #2 and HK-2; expressed in transfected cells; host or cells: COS-7 cells, transient (DEAE/Dextran), pcDNAI
T3 sequence (Q03431 27-593 L389Q): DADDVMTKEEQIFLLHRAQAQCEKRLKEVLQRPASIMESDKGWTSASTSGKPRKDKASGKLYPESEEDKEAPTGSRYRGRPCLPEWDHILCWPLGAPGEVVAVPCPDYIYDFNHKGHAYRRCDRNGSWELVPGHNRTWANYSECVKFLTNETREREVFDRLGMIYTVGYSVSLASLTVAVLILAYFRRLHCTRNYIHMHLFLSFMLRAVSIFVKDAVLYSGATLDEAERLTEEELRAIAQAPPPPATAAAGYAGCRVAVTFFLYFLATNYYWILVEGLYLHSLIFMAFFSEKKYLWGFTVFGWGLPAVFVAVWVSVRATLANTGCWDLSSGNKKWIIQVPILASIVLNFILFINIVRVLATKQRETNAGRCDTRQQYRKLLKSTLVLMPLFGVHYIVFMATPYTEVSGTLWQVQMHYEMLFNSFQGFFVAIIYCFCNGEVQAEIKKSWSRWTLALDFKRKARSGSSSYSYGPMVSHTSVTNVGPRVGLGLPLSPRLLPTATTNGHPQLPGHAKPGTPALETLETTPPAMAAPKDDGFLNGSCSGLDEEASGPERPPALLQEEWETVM
Description: as §1, §2, §3

T1 sequence (P25107 27-585 S86P/I132F): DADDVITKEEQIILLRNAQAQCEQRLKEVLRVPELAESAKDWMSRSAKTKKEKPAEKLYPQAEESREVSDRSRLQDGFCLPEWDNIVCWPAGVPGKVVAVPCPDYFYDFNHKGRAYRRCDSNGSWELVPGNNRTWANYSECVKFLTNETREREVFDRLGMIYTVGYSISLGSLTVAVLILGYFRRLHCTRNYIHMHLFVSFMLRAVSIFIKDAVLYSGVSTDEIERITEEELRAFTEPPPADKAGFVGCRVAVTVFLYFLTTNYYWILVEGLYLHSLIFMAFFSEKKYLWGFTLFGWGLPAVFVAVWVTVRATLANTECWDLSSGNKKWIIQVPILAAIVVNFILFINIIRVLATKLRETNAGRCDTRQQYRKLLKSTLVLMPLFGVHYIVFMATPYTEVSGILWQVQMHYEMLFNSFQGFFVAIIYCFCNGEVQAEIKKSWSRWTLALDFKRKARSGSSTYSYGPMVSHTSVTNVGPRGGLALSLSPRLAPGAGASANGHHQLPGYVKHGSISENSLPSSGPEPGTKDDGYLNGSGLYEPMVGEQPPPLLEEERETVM
T2 sequence (P25107 other isoform, or with tags, fused parts or gaps S86P/I132F): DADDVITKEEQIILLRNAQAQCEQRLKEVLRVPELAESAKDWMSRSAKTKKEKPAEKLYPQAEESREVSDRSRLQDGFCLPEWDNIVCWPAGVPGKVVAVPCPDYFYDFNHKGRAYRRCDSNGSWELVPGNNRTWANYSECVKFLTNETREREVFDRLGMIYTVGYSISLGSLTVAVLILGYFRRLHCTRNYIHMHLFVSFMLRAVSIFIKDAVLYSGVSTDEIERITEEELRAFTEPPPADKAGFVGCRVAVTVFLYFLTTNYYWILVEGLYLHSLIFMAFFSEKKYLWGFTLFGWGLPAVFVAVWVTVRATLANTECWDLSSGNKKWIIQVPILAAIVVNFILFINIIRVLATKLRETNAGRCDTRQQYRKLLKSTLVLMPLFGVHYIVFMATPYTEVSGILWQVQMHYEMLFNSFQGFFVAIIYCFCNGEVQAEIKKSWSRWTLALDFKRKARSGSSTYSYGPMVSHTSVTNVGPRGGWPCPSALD

[Nle^8,18, Tyr^34]bPTH(1-34)amide
inositol phosphate metabolism (IP3 and IP2 accumulation) [1]: rapid increase
inhibition of 125I-PTHrP binding by competitor [2]: inhibited
fold higher apparent Kd, human versus rat bone PTH/PTHrP receptor ([3]; human versus rat receptor): 2 fold
specific binding of radiolabelled ligand ([3]; radiolabelled ligand ~200,000 cpm, COS-7 cells transfected with cloned human PTH/PTHrP receptor): 10.1±3.7%

— patent publication US7150974B1, “Parathyroid hormone receptor binding method” (The General Hospital Corporation, priority 1991, dated 2006)
